Test results published in patent publication US20110183978A1, “Phenylpyri(mi)dinylazoles” (Bayer CropScience AG, priority 2009, published 2011).
Like-named read-outs stand apart in the source and are kept apart here.

What was measured:
[1] = test system: Sphaerotheca fuliginea; experiment: Example L: in vivo test on Sphaerotheca fuliginea (powdery mildew on cucumber/protective); conditions: Podosphaera fuliginea, 168 h, cucumber, protective, assessment 7 days after inoculation, read-out: % Wirkungsgrad
Protocol: (§1) Solvent: 49 parts by weight N,N-dimethylformamide Emulsifier: 1 part by weight alkylaryl polyglycol ethers For the preparation of a suitable active substance preparation, 1 part by weight of active substance is mixed with the stated quantities of solvent and emulsifier and the concentrate is diluted to the desired concentration with water. For the testing for protective activity, young cucumber plants are sprayed with the active substance preparation at the stated application dosage. One day after the treatment, the plants are inoculated with a spore suspension of Sphaerotheca fuliginea. Next, the plants are placed in a greenhouse at 70% relative atmospheric humidity and a temperature of 23° C. 7 days after the inoculation, the assessment takes place.

[2] = test system: Alternaria solani; experiment: Example M: in vivo test on Alternaria solani (leaf blotch disease/tomato/protective); conditions: 168 h, tomato, protective, 500 ppm active substance, assessed 7 days after inoculation, read-out: % Wirkungsgrad (activity level)
Protocol: as §1, with “tomato” for “cucumber”, “One day after the treatment, the plants are inoculated with a spore suspension of Sphaerotheca fuliginea. Next, the plants are placed in a greenhouse at 70% relative atmospheric humidity and a temperature of 23° C.” left out

[3] = physchem; conditions: LogPA
[4] = test system: Fusarium graminearum; experiment: microbe, parasite or virus in culture; format: cell-based

SMILES | pest or weed control at 500 ppm [1] [%] | pest or weed control at 500 ppm [2] [%] | chromatographic logP [3] | inhibition at 50 µM ([4]; 72 h, read-out: % Inhibition des Pilzwachstums bei 50 μM) [%] | inhibition at 50 µM ([4]; 168 h, read-out: % Inhibition der DON/AcDON produktion bei 50 μM) [%]
CCC(=O)Nc1cc(-c2cn(CC3OCCO3)nc2-c2ccc(F)cc2)ccn1 [Compound 278] | 89 | 95 | 1.59 | – | –
CC(C)Cn1cc(-c2ccnc(NC3COC3)n2)c(-c2ccc(F)cc2)n1 [Compound 279] | 100 | 70 | 2.35 | – | –
CC(C)n1cc(-c2ccnc3[nH]cnc23)c(-c2ccc(F)cc2)n1 [Compound 280] | 93 | 95 | 1.82 | – | –
CC(C)Cn1cc(-c2ccnc(NC3CC3)n2)c(-c2ccc(F)cc2)n1 [Compound 281] | 94 | 95 | 2.41 | – | –
Cc1cn(-c2cc(-c3cn(C(C)C)nc3-c3ccc(F)cc3)ccn2)cn1 [Compound 283] | 78 | 95 | 2.05 | – | –
CC(C)Cn1cc(-c2ccnc(NC(C)(C)C)n2)c(-c2ccc(F)cc2)n1 [Compound 284] | 91 | 100 | 2.94 | – | –
COCC(C)Nc1nccc(-c2cn(CC(C)C)nc2-c2ccc(F)cc2)n1 (stereo not shown) [Compound 285] | 89 | 95 | 2.39 | – | –
CCC(C)Nc1nccc(-c2cn(CC(C)C)nc2-c2ccc(F)cc2)n1 (stereo not shown) [Compound 286] | 89 | 90 | 2.68 | – | –
CCn1cc(-c2ccnc(NC(=O)C(C)C)c2)c(-c2ccc(F)cc2)n1 [Compound 290] | 100 | 100 | 2.14 | – | –
CCn1cc(-c2ccnc(NC(=O)CC3CC3)c2)c(-c2ccc(F)cc2)n1 [Compound 291] | 95 | 100 | 2.29 | – | –
CCCn1cc(-c2ccnc(NC(=O)CC)c2)c(-c2ccc(F)cc2)n1 [Compound 292] | 95 | 100 | 2.15 | – | –
CCCn1cc(-c2ccnc(NC(=O)COC)c2)c(-c2ccc(F)cc2)n1 [Compound 293] | 94 | 100 | 2.58 | – | –
CCCn1cc(-c2ccnc(NC(=O)C(C)C)c2)c(-c2ccc(F)cc2)n1 [Compound 294] | 98 | 100 | 2.49 | – | –
CCCn1cc(-c2ccnc(NC(=O)CC3CC3)c2)c(-c2ccc(F)cc2)n1 [Compound 295] | 94 | 100 | 2.66 | – | –
CCC(=O)Nc1cc(-c2cn(C)nc2-c2ccc(F)cc2)ccn1 [Compound 296] | 84 | 100 | 1.56 | – | –
COCC(=O)Nc1cc(-c2cn(C)nc2-c2ccc(F)cc2)ccn1 [Compound 297] | 90 | 100 | 1.89 | – | –
CC(C)C(=O)Nc1cc(-c2cn(C)nc2-c2ccc(F)cc2)ccn1 [Compound 298] | 100 | 80 | 1.83 | – | –
Cn1cc(-c2ccnc(NC(=O)CC3CC3)c2)c(-c2ccc(F)cc2)n1 [Compound 299] | 84 | 100 | 1.98 | – | –
CCC(=O)Nc1cc(-c2cn(CCSC)nc2-c2ccc(F)cc2)ccn1 [Compound 300] | 90 | 80 | 2.12 | – | –
CCOCCn1cc(-c2ccnc(NC(=O)COC)c2)c(-c2ccc(F)cc2)n1 [Compound 327] | – | 95 | 2.38 | 105 | 100
CCn1cc(-c2ccnc(NC(=O)CCCC(=O)OC)c2)c(-c2ccc(F)cc2)n1 [Compound 331] | 94 | – | 2.02 | – | –
CCn1cc(-c2ccnc(NC(=O)c3snnc3C)c2)c(-c2ccc(F)cc2)n1 [Compound 335] | 74 | – | 2.72 | – | –
Cn1cc(-c2ccnc(NC(=O)c3ccccc3)c2)c(-c2ccc(F)cc2)n1 [Compound 346] | 95 | – | 2.42 | – | –
